The record followed here is US12310975B2, “Modulators of BCL6 proteolysis and associated methods of use” (Arvinas Operations, Inc., priority 2019, dated 2025).

Assay [1] has as its target T1, BCL6 (Homo sapiens (Human), UniProt P41182). Kind of assay: BCL6 TR-FRET assay (BCL6-Avitag-Biotin / BCoR-Cy5 peptide). In kind it is binding. In short, it runs like this:
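After 30 min room-temperature preincubation of compound titrations with 2 nM biotinylated BCL6-Avitag, 100 nM Cy5-labelled BCoR peptide plus 2 nM Eu-streptavidin were added and TR-FRET read 2 h later. HEPES pH 7.5/125 mM NaCl buffer with Triton X, glutathione (or DTT) and BSA.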

In assay [2] the target is T1, BCL6. Nature of the assay: Immunofluorescence high content imaging of BCL6 degradation in T47D cells. In kind it is cell-based. Conditions: for Dmax: T47D. In short, it runs like this: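 Seed T47D in RPMI1640-10% FBS to reach ~70-90% confluence at endpoint; add degrader next day (11-point 3-fold series, top 0.1 or 1 μM final) for 3 days. Then fix, permeabilize, stain BCL6 with nuclear Hoechst, and image.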

Molecules are shown by their SMILES.

For `CC(=O)COc1cc2cc(Nc3nc(N4CCC(CN(C)CC#Cc5ccc6c(c5)C(=O)N(C5CCC(=O)NC5=O)C6=O)CC4)ncc3Cl)ccc2n(C)c1=O` (centres unmarked) [compound 176, 5-(3-(((1-(5-chloro-4-((1-methyl-2-oxo-3-(2-oxopropoxy)-1,2-dihydroquinolin-6-yl)amino)pyrimidin-2-yl)piperidin-4-yl)methyl)(methyl)amino)prop-1-yn-1-yl)-2-(2,6-dioxopiperidin-3-yl)isoindoline-1,3-dione], on BCL6 [1] (class symbols A-D, read-out: IC50 (nM)***), the IC50 (usually the concentration at which inhibition is half-maximal) was no less than 100 nM. Further, at BCL6 [2] (maximum, class symbols A-C), the Dmax (in general, the greatest extent of degradation seen) was less than 50%.
For the compound `CC(=O)COc1cc2cc(Nc3nc(N4CCN(C)C(COc5ccc6c(c5)C(=O)N(C5CCC(=O)NC5=O)C6=O)C4)ncc3Cl)ccc2n(C)c1=O` (centres unmarked) [compound 194, 5-((4-(5-chloro-4-((1-methyl-2-oxo-3-(2-oxopropoxy)-1,2-dihydroquinolin-6-yl)amino)pyrimidin-2-yl)-1-methylpiperazin-2-yl)methoxy)-2-(2,6-dioxopiperidin-3-yl)isoindoline-1,3-dione], on BCL6 [1], the EC50 – broadly, the concentration at which the effect is half-maximal – fell in the range of 10 to 50 nM. At BCL6 [2], this compound gave an IC50 of no less than 100 nM and a Dmax of 50 to 70%.
The matching figures for `CNC(=O)COc1cc2cc(Nc3nc(N4CC5CC4CN5CC4CCN(c5ccc6c(c5)C(=O)N(C5CCC(=O)NC5=O)C6=O)CC4)ncc3Cl)ccc2n(C)c1=O` (centres unmarked) [compound 195, 2-((6-((5-chloro-2-(5-((1-(2-(2,6-dioxopiperidin-3-yl)-1,3-dioxoisoindolin-5-yl)piperidin-4-yl)methyl)-2,5-diazabicyclo [2.2.1]heptan-2-yl)pyrimidin-4-yl)amino)-1-methyl-2-oxo-1,2-dihydroquinolin-3-yl)oxy)-N-methylacetamide]: less than 10 nM, 10 to 50 nM and less than 50%.
The matching figures for `CNC(=O)COc1cc2cc(Nc3nc(N4CCC(CN5CCN(c6ccc7c(c6)C(=O)N(C6CCC(=O)NC6=O)C7=O)CC5=O)CC4)ncc3Cl)ccc2n(C)c1=O` (centres unmarked) [compound 196, 2-((6-((5-chloro-2-(4-((4-(2-(2,6-dioxopiperidin-3-yl)-1,3-dioxoisoindolin-5-yl)-2-oxopiperazin-1-yl)methyl)piperidin-1-yl)pyrimidin-4-yl)amino)-1-methyl-2-oxo-1,2-dihydroquinolin-3-yl)oxy)-N-methylacetamide]: 10 to 50 nM, 10 to 50 nM and 50 to 70%.
Taken in the same sequence, the figures for `CNC(=O)COc1cc2cc(Nc3cc(N4CCC(CN5CCN(c6ccc7c(c6)C(=O)N(C6CCC(=O)NC6=O)C7=O)CC5)CC4)ncc3Cl)ccc2n(C)c1=O` (centres unmarked) [compound 197, 2-((6-((5-chloro-2-(4-((4-(2-(2,6-dioxopiperidin-3-yl)-1,3-dioxoisoindolin-5-yl)piperazin-1-yl)methyl)piperidin-1-yl)pyridin-4-yl)amino)-1-methyl-2-oxo-1,2-dihydroquinolin-3-yl)oxy)-N-methylacetamide] were 50 to 100 nM, 50 to 100 nM and 50 to 70%.
At BCL6 [1], `CCNC(=O)COc1cc2cc(Nc3nc(N4CCC(CN5CCN(c6ccc7c(c6)C(=O)N(C6CCC(=O)NC6=O)C7=O)CC5)CC4)ncc3Cl)ccc2n(C)c1=O` (centres unmarked) [compound 198, 2-((6-((5-chloro-2-(4-((4-(2-(2,6-dioxopiperidin-3-yl)-1,3-dioxoisoindolin-5-yl)piperazin-1-yl)methyl)piperidin-1-yl)pyrimidin-4-yl)amino)-1-methyl-2-oxo-1,2-dihydroquinolin-3-yl)oxy)-N-ethylacetamide] yielded an EC50 greater than 100 nM. At BCL6 [2], this compound had an IC50 of 50 to 100 nM and a Dmax of 50 to 70%.
Compound `CC(=O)COc1cc2cc(Nc3nc(N4CCC(CN5CC(C6CN(c7ccc8c(c7)C(=O)N(C7CCC(=O)NC7=O)C8=O)C6)C5)CC4)ncc3Cl)ccc2n(C)c1=O` (centres unmarked) [compound 199, 5-(1′-((1-(5-chloro-4-((1-methyl-2-oxo-3-(2-oxopropoxy)-1,2-dihydroquinolin-6-yl)amino)pyrimidin-2-yl)piperidin-4-yl)methyl)-[3,3′-biazetidin]-1-yl)-2-(2,6-dioxopiperidin-3-yl)isoindoline-1,3-dione] yielded an EC50 on BCL6 [1] of less than 10 nM. Moreover, at BCL6 [2], the IC50 lay within 10 to 50 nM and the Dmax lay in the range of 50 to 70%.
